Literature values in patent US20250345298A1, “APOE4 CORRECTORS AND METHODS OF USE” (Alzheon, Inc., priority 2022, published 2025).

SMILES | efficacy in Alzheimer's disease trials (human clinical trials for AD) | safety in human subjects
NCCCS(=O)(=O)O [Tramiprosate, 3-amino-1-propanesulfonic acid] | suggested efficacy in at least some patients | safe
CC(C)[C@H](N)C(=O)NCCCS(=O)(=O)O [ALZ-801, valyl-3-amino-1-propanesulfonic acid] |  | safe
